Assay results reported in PubChem BioAssay AID248 (DTP/NCI, 2004).
“And” between values parts separate entries of the source, which are not always exact repeats. Equal entries are not always repeated. Toxic doses and inconclusive results are not listed. No stated cut-off is given here; in the data, active means T/C of 150% or more; inactive means T/C below 125%.

System: L1210 leukemia ip in BDF1 mice, survival T/C
Experiment: NCI In Vivo Anticancer Drug Screen. Data for tumor model L1210 Leukemia (intraperitoneal) in B6D2F1 (BDF1) mice
Conditions: endpoint: mean survival time, higher = longer survival
Procedure, shortened: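 Tumor was transplanted into mice, which were then dosed with test compound or vehicle alone. Survival was recorded for each group, and the treated figure was expressed relative to the control figure.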

[1] = dose: 50.0 mg/kg/injection, schedule: Q01DX001 (ip), vehicle: saline
[2] = dose: 100.0 mg/kg/injection, schedule: Q01DX001 (ip), vehicle: saline
[3] = dose: 200.0 mg/kg/injection, schedule: Q01DX001 (ip), vehicle: saline
[4] = dose: 400.0 mg/kg/injection, schedule: Q01DX001 (ip), vehicle: saline
[5] = dose: 100.0 mg/kg/injection, schedule: Q04DX002 (ip), vehicle: saline with Tween-80
[6] = dose: 100.0 mg/kg/injection, schedule: Q04DX002 (ip), vehicle: saline
[7] = dose: 200.0 mg/kg/injection, schedule: Q04DX002 (ip), vehicle: saline with Tween-80
[8] = dose: 100.0 mg/kg/injection, schedule: Q01DX009 (ip), vehicle: saline
[9] = dose: 100.0 mg/kg/injection, schedule: Q04DX003 (ip), vehicle: saline with Tween-80
[10] = dose: 200.0 mg/kg/injection, schedule: Q01DX009 (ip), vehicle: saline
[11] = dose: 200.0 mg/kg/injection, schedule: Q04DX003 (ip), vehicle: saline with Tween-80
[12] = dose: 400.0 mg/kg/injection, schedule: Q01DX009 (ip), vehicle: saline
[13] = dose: 400.0 mg/kg/injection, schedule: Q04DX003 (ip), vehicle: saline with Tween-80
[14] = dose: 100.0 mg/kg/injection, schedule: Q01DX009 (ip), vehicle: Klucel (hydroxypropylcellulose) (HPC)
[15] = dose: 200.0 mg/kg/injection, schedule: Q01DX009 (ip), vehicle: Klucel (hydroxypropylcellulose) (HPC)
[16] = dose: 100.0 mg/kg/injection, schedule: Q04DX003 (ip), vehicle: Klucel (hydroxypropylcellulose) (HPC)
[17] = dose: 200.0 mg/kg/injection, schedule: Q04DX003 (ip), vehicle: Klucel (hydroxypropylcellulose) (HPC)
[18] = dose: 400.0 mg/kg/injection, schedule: Q04DX003 (ip), vehicle: Klucel (hydroxypropylcellulose) (HPC)
[19] = dose: 25.0 mg/kg/injection, schedule: Q01DX009 (ip), vehicle: Klucel (hydroxypropylcellulose) (HPC)
[20] = dose: 50.0 mg/kg/injection, schedule: Q01DX009 (ip), vehicle: Klucel (hydroxypropylcellulose) (HPC)
[21] = dose: 200.0 mg/kg/injection, schedule: Q01DX009 (ip), vehicle: saline with Tween-80

Measured: T/C

O=C1C(c2[nH]c3cc4c(cc3c2O)OCO4)=Nc2cc3c(cc21)OCO3
inactive: [1] 100 % of control | [2] 103 % of control | [3] 97 % of control | [4] 94 % of control

O=C(CCCC(=O)NO)NO
inactive: [5] 113 % of control | [6] 100 % of control | [7] 100 % of control | dose: 200.0 mg/kg/injection, schedule: Q04DX002 (ip), vehicle: saline 97 % of control | dose: 400.0 mg/kg/injection, schedule: Q04DX002 (ip), vehicle: saline with Tween-80 97 % of control | dose: 400.0 mg/kg/injection, schedule: Q04DX002 (ip), vehicle: saline 113 % of control

O=C1c2ccccc2CCC12OC2c1ccc(Cl)cc1 (stereo not given)
inactive: dose: 50.0 mg/kg/injection, schedule: Q01DX009 (ip), vehicle: saline 102 % of control | [8] 107 % of control | [9] 108 % of control | [10] 98 % of control | [11] 95 % of control | [12] 100 % of control | [13] 103 % of control

CCC(=O)OCNC(=O)NNC(=O)CCCC(=O)NNC(=O)NCOC(=O)CC
inactive: [1] 102 % of control | [2] 102 % of control | [3] 106 % of control | [4] 100 % of control

C(=C(CC1CCC1)CC1CCC1)C1CCC1
inactive: [5] 96 % of control | [7] 90 % of control

O=C(O)c1ccc(OCCCCOc2ccccc2)c(Cl)c1
inactive: [14] 98 % of control | [15] 98 % of control | dose: 400.0 mg/kg/injection, schedule: Q01DX009 (ip), vehicle: Klucel (hydroxypropylcellulose) (HPC) 95 % of control

CCCNCCC[P+](c1ccccc1)(c1ccccc1)c1ccccc1
inactive: dose: 25.0 mg/kg/injection, schedule: Q04DX002 (ip), vehicle: saline 102 % of control | dose: 50.0 mg/kg/injection, schedule: Q04DX002 (ip), vehicle: saline 98 % of control | [6] 98 % of control and 91 % of control

CC(=O)Nc1cc2[nH]cnc2c(Br)n1
inactive: dose: 25.0 mg/kg/injection, schedule: Q01DX005 (ip), vehicle: saline 100 % of control | dose: 50.0 mg/kg/injection, schedule: Q01DX005 (ip), vehicle: saline 105 % of control | dose: 100.0 mg/kg/injection, schedule: Q01DX005 (ip), vehicle: saline 110 % of control

O=C(NCc1ccccc1)Sc1ccccc1
inactive: dose: 87.5 mg/kg/injection, schedule: Q01DX001 (ip), vehicle: Klucel (hydroxypropylcellulose) (HPC) 96 % of control

CC(=O)NC1CCC(NC(C)=O)CC1 (stereo not given)
inactive: [2] 104 % of control | [3] 97 % of control | [4] 104 % of control

CCCCCCCCCCCCCCCC[As](=O)(O)O
inactive: [16] 121 % of control | [17] 93 % of control | [18] 90 % of control

CC(=O)Oc1cc(Cl)c(Cl)cc1Cl
inactive: [8] 100 % of control | dose: 100.0 mg/kg/injection, schedule: Q04DX002 (ip), vehicle: gum acacia 102 % of control | [10] 100 % of control | dose: 200.0 mg/kg/injection, schedule: Q04DX002 (ip), vehicle: gum acacia 110 % of control | [12] 102 % of control | dose: 400.0 mg/kg/injection, schedule: Q04DX002 (ip), vehicle: gum acacia 94 % of control

COc1ccc(NCc2ccccc2O)cc1
inactive: dose: 100.0 mg/kg/injection, schedule: Q01DX001 (ip), vehicle: other 95 % of control | dose: 200.0 mg/kg/injection, schedule: Q01DX001 (ip), vehicle: other 87 % of control | dose: 400.0 mg/kg/injection, schedule: Q01DX001 (ip), vehicle: other 93 % of control

N#C/C(N)=C(\C#N)N=CC=N/C(C#N)=C(/N)C#N
inactive: dose: 12.5 mg/kg/injection, schedule: Q01DX009 (ip), vehicle: Klucel (hydroxypropylcellulose) (HPC) 103 % of control | [19] 103 % of control | [20] 103 % of control | dose: 100.0 mg/kg/injection, schedule: Q01DX001 (ip), vehicle: Klucel (hydroxypropylcellulose) (HPC) 95 % of control

C=CCOCC(O)CN(C)CCCCCCCCCCCC (stereo not given)
inactive: dose: 6.0 mg/kg/injection, schedule: Q04DX003 (ip), vehicle: Klucel (hydroxypropylcellulose) (HPC) 98 % of control | dose: 12.0 mg/kg/injection, schedule: Q04DX003 (ip), vehicle: Klucel (hydroxypropylcellulose) (HPC) 96 % of control | [19] 109 % of control | dose: 25.0 mg/kg/injection, schedule: Q04DX003 (ip), vehicle: Klucel (hydroxypropylcellulose) (HPC) 93 % of control and 96 % of control | [20] 109 % of control | [16] 96 % of control

O=C(NCc1ccccc1)c1ccccc1/C(=N/O)c1ccccc1
inactive: [21] 86 % of control

COC(=O)C1Cc2ccccc2/C1=N\O (stereo not given)
inactive: dose: 50.0 mg/kg/injection, schedule: Q01DX009 (ip), vehicle: saline with Tween-80 94 % of control | dose: 100.0 mg/kg/injection, schedule: Q01DX009 (ip), vehicle: saline with Tween-80 94 % of control | [21] 94 % of control

CC1CC[N-]CC1.CC1CC[N-]CC1.CC1CC[N-]CC1.[Cl][Cr]([Cl])[Cl]
inactive: dose: 100.0 mg/kg/injection, schedule: Q04DX003 (ip), vehicle: other 98 % of control | dose: 200.0 mg/kg/injection, schedule: Q04DX003 (ip), vehicle: other 95 % of control | dose: 400.0 mg/kg/injection, schedule: Q04DX003 (ip), vehicle: other 97 % of control

Cc1cc(C)c(CN)cc1C
inactive: dose: 5.0 mg/kg/injection, schedule: Q04DX003 (ip), vehicle: saline with Tween-80 95 % of control | dose: 10.0 mg/kg/injection, schedule: Q04DX003 (ip), vehicle: saline with Tween-80 95 % of control | dose: 20.0 mg/kg/injection, schedule: Q04DX003 (ip), vehicle: saline with Tween-80 95 % of control

O=S(=O)(Nc1cccc2ccccc12)c1cccc2cccnc12
inactive: [16] 90 % of control | [17] 91 % of control | [18] 91 % of control

CCOC(=O)c1cnc(=S)[nH]c1N
inactive: [20] 102 % of control | dose: 50.0 mg/kg/injection, schedule: Q04DX003 (ip), vehicle: Klucel (hydroxypropylcellulose) (HPC) 95 % of control | [14] 96 % of control | [16] 95 % of control | [15] 93 % of control | [17] 97 % of control

Cn1ccc2cc(Br)ccc21
inactive: [9] 102 % of control | [11] 101 % of control | [13] 101 % of control
